The source of these data is US20140335203A1, “SYNERGISTIC BLENDS OF ANTIMICROBIALS USEFUL FOR CONTROLLING MICROORGANISMS IN INDUSTRIAL PROCESSES” (Hercules Incorporated, priority 2013, published 2014).

For experiment [1], the system named is Lactobacillus plantarum. The experiment is described as follows: Minimal Inhibitory Concentration (MIC), two-fold dilution series in 96 well microplate, antimicrobial used alone. Conditions: pH 6; for MIC: Lactiplantibacillus plantarum. In kind it is cell-based. From the text: While there are various methods known to individuals skilled in the art for measuring levels of antimicrobial activity, in the following examples the endpoint used is known as the Minimal Inhibitory Concentration, or MIC. This is the lowest concentration of a substance or substances which can achieve complete inhibition of growth.
In order to determine the Minimal Inhibitory Concentration, a two-fold dilution series of the antimicrobial is constructed with the dilutions being made in growth media. The dilutions are made in a 96 well microplate such that each well has a final volume of 280 μl of media and antimicrobial. […] After the dilution series is constructed the wells receive an inoculum of microbe suspended in growth media such that the final concentration of microbes in the well is ˜5×10^5 cfu/ml. In these examples the test microbe used is Lactobacillus plantarum. The cultures are incubated at an appropriate temperature for 18-24 hours, and the wells scored as positive or negative for growth based on a visual examination for turbid wells. A turbid well indicates growth has occurred.
Minimal inhibitory concentrations were determined for both chlorine dioxide and citric acid at pH 6 using the protocol described above with Lactobacillus plantarum as the test microbe. Checkerboard synergy plates were constructed as described, the wells inoculated to a final concentration of ˜5×10^5 cfu/ml, incubated for 18-24 hours, and then scored visually for growth/no growth. […] Minimal inhibitory concentrations were determined for both chlorine dioxide and sodium propionate at pH 6 using the protocol described above with Lactobacillus plantarum as the test microbe. Checkerboard synergy plates wore constructed as described, the wells inoculated to a final concentration of ˜5×10^5 cfu/ml, incubated for 18-24 hours, and then scored visually for growth/no growth.
Minimal inhibitory concentrations were determined for both chlorine dioxide and potassium benzoate at pH 6 using the protocol described above with Lactobacillus plantarum as the test microbe. Checkerboard synergy plates were constructed as described, the wells inoculated to a final concentration of ˜5×10^5 cfu/ml, incubated for 18-24 hours, and then scored visually for growth/no growth.
Minimal inhibitory concentrations were determined for both chlorine dioxide and ascorbic acid at pH 6 using the protocol described above with Lactobacillus plantarum as the test microbe. Checkerboard synergy plates were constructed as described, the wells inoculated to a final concentration of ˜5×10^5 cfu/ml, incubated for 18-24 hours, and then scored visually for growth/no growth.

Experiment [2] relates to Lactobacillus plantarum. In words: Checkerboard synergy plates (MIC in combination, Synergy Index by Kull et al.). Type of experiment: cell-based. Conditions: pH 6. The procedure: Minimal inhibitory concentrations were determined for both chlorine dioxide and citric acid at pH 6 using the protocol described above with Lactobacillus plantarum as the test microbe. Checkerboard synergy plates were constructed as described, the wells inoculated to a final concentration of ˜5×10^5 cfu/ml, incubated for 18-24 hours, and then scored visually for growth/no growth. […] Minimal inhibitory concentrations were determined for both chlorine dioxide and sodium propionate at pH 6 using the protocol described above with Lactobacillus plantarum as the test microbe. Checkerboard synergy plates wore constructed as described, the wells inoculated to a final concentration of ˜5×10^5 cfu/ml, incubated for 18-24 hours, and then scored visually for growth/no growth. […] Minimal inhibitory concentrations were determined for both chlorine dioxide and potassium benzoate at pH 6 using the protocol described above with Lactobacillus plantarum as the test microbe. Checkerboard synergy plates were constructed as described, the wells inoculated to a final concentration of ˜5×10^5 cfu/ml, incubated for 18-24 hours, and then scored visually for growth/no growth. […] Minimal inhibitory concentrations were determined for both chlorine dioxide and ascorbic acid at pH 6 using the protocol described above with Lactobacillus plantarum as the test microbe. […]

The test system of experiment [3] is Weisella confusa. Conditions: cited from earlier work.
Experiment [4] concerns fermentation. Particulars: cited from earlier work.

“And” between values parts separate entries of the source, which are not always exact repeats. Equal values may be shown once. Read-outs that look alike come from different tables or passages of the source.

The MIC is the least concentration at which growth counts as inhibited.

In the case of `O=C1O[C@H]([C@@H](O)CO)C(O)=C1O` [Ascorbic Acid, ascorbic acid], the MIC in experiment [1] (read-out: Ascorbic Acid MIC (QB), used alone) was determined as 10 mg/mL.

Turning to `O=C([O-])c1ccccc1.[K+]` [Potassium Benzoate, potassium benzoate], the “Potassium Benzoate MIC (QB), used alone” value in experiment [1] is listed as 100000 ppm; in experiment [1] (listed as potassium benzoate), 100,000 ppm.

`[O][Cl+][O-]` [ClO2, chlorine dioxide]: the “ClO2 MIC (QA), used alone” value is 100 ppm in experiment [1] (Table 1 (citric acid series)); 115 ppm in experiment [1] (Table 2 (sodium propionate series)); 115 ppm and 130 ppm in experiment [1] (Table 3 (potassium benzoate series)); 115 ppm and 130 ppm in experiment [1] (Table 3 (potassium benzoate series), listed as chlorine dioxide); 67.5 ppm in experiment [1] (Table 4 (ascorbic acid series)). The “ClO2 MIC (Qa), used in combination” value in experiment [2] (in combination with citric acid) was 15-60 ppm.

For the compound Virginiamycin, the “concentration required to inhibit growth of Weisella confusa” value in experiment [3] is “over 25 mg/L”. In experiment [4], the “concentration that will suppress fermentation” value is “over 2 mg/L”.

For the compound `O=C(O)CC(O)(CC(=O)O)C(=O)O` [Citric Acid, citric acid], the MIC in experiment [1] (read-out: Citric Acid MIC (QB), used alone) was 100 mg/mL. In addition, the “Citric Acid MIC (QB), used alone” value in experiment [1] came out at 100000 ppm. The “Citric Acid MIC (Qb), used in combination” value in experiment [2] (in combination with ClO2) is 390-12,500 ppm.

For the compound `CCC(=O)[O-].[Na+]` [Sodium Propionate, sodium propionate], the “Sodium Propionate MIC (QB), used alone” value was 100000 ppm in experiment [1] and 100,000 ppm in experiment [1] (listed as sodium propionate).
